Data from publication PMC11855827, “High-Throughput Screening of Five Compound Libraries for Anthelmintic Activity and Toxicity Leads to the Discovery of Two Flavonoid Compounds” (International Journal of Molecular Sciences, 2025).
Several values for one entry are separate records, joined by “and”; a condition that tells them apart may be missing. Equal values may be shown once. Read-outs that look alike come from different tables or passages of the source.

Test system: C. elegans
[1] = Table S2, C. elegans SS assay, 110 μM, 0 h, averages of 4 data points
[2] = Table S2, C. elegans SS assay, 110 μM, 24 h, averages of 4 data points

Row | Compound | Percentage of motility inhibition 0 h [1] | Percentage of motility inhibition 24 h [2] | Percentage of motility inhibition 0 h (110 µM) [%] | Percentage of motility inhibition 24 h (110 µM) [%]
1 | O=C1C[C@@H](c2ccc(O)cc2)Oc2cc(O[C@@H]3O[C@H](CO)[C@@H](O)[C@H](O)[C@H]3O)ccc21 [Neoliquiritin] | 0% | 20% |  | 
2 | O=c1c2cc(O[C@@H]3O[C@H](CO)[C@@H](O)[C@H](O)[C@H]3O)c(O)cc2oc2cc(O)c([C@@H]3O[C@H](CO)[C@@H](O)[C@H](O)[C@H]3O)c(O)c12 [Neomangiferin] | 7% | 17% |  | 
3 | NC[C@@H]1O[C@H](O[C@H]2[C@@H](O)[C@H](O[C@@H]3[C@@H](O)[C@H](N)C[C@H](N)[C@H]3O[C@H]3O[C@H](CN)[C@@H](O)[C@H](O)[C@H]3N)O[C@@H]2CO)[C@H](N)[C@@H](O)[C@@H]1O.O=S(=O)(O)O [Neomycin (sulfate)] | 21% | 3% |  | 
4 | C=CC(=C)CCCC(C)CCCC(C)CCCC(C)C (stereo not drawn) [Neophytadiene] | 3% | 6% |  | 
5 | COc1c(O)cc2oc(-c3ccc(O)c(O)c3)cc(=O)c2c1O [Nepetin] | 4% | 17% |  | 
6 | CCN[C@@H]1C[C@H](N)[C@@H](O[C@H]2OC(CN)=CC[C@H]2N)[C@H](O)[C@H]1O[C@H]1OC[C@](C)(O)[C@H](NC)[C@H]1O.CCN[C@@H]1C[C@H](N)[C@@H](O[C@H]2OC(CN)=CC[C@H]2N)[C@H](O)[C@H]1O[C@H]1OC[C@](C)(O)[C@H](NC)[C@H]1O.O=S(=O)(O)O.O=S(=O)(O)O.O=S(=O)(O)O.O=S(=O)(O)O.O=S(=O)(O)O [Netilmicin (sulfate)] | 0% | 1% |  | 
7 | C[C@@H]1O[C@@H](OC[C@H]2O[C@@H](Oc3c(-c4ccc(O)cc4)oc4cc(O)cc(O)c4c3=O)[C@H](O)[C@@H](O)[C@@H]2O)[C@H](O)[C@H](O)[C@H]1O [Nicotiflorin] | 4% | 40% |  | 
8 | NC(=O)c1ccc[n+]([O-])c1 [Nicotinamide N‐oxide] |  |  | 14 | 32
9 | NC(=O)c1ccc[n+]([C@@H]2O[C@H](CO)[C@@H](O)[C@H]2O)c1.[Cl-] [Nicotinamide riboside (chloride)] | 15% | 0% |  | 
10 | NC(=O)c1cccnc1 [Nicotinamide] |  | 0% and 10% |  | 
11 | O=C([O-])c1ccc[n+]([C@@H]2O[C@H](CO)[C@@H](O)[C@H]2O)c1 [Nicotinic acid riboside] | 5% | 0% |  | 
12 | C[C@@H]1CC[C@]2(C(=O)O[C@@H]3O[C@H](CO)[C@@H](O)[C@H](O)[C@H]3O)CC[C@]3(C)C(=CC[C@@H]4[C@@]5(C)C[C@@H](O)[C@H](O)[C@@](C)(CO)[C@@H]5CC[C@]43C)[C@@H]2[C@]1(C)O [Niga-ichigoside F1] | 0% | 1% |  | 
13 | COc1cc2c[n+](C)c3c4cc5c(cc4ccc3c2cc1OC)OCO5.[Cl-] [Nitidine (chloride)] | 0% | 7% |  | 
14 | NC(=O)c1cc([N+](=O)[O-])cc([N+](=O)[O-])c1 [Nitromide] | 25% | 12% |  | 
15 | CC(Cc1ccc(O)c(O)c1)C(C)Cc1ccc(O)c(O)c1 (stereo not drawn) [Nordihydroguaiaretic acid] | 8% | 21% |  | 
16 | Cl.NCC(O)c1ccc(O)c(O)c1 (stereo not drawn) [Norepinephrine (hydrochloride)] | 23% and 12% |  |  | 
17 | CC(C)(O)CCc1c(O)cc(O)c2c(=O)c(O)c(-c3ccc(O)cc3)oc12 [Noricaritin] | 42% | 5% |  | 
18 | COc1cc2c(cc1O)C[C@@H]1NCCc3cc(OC)c(O)c-2c31 [Norisoboldine] | 0% | 0% |  | 
19 | OC1C[C@H]2CC[C@@H](C1)N2 (stereo partly drawn) [Nortropine] | 12% | 11% |  | 
20 | CC(C)=CCC[C@](C)(O[C@@H]1O[C@H](CO[C@@H]2O[C@H](CO)[C@@H](O)[C@H](O)[C@H]2O)[C@@H](O)[C@H](O)[C@H]1O)[C@H]1CC[C@]2(C)[C@@H]1[C@H](O)C[C@@H]1[C@@]3(C)CC[C@H](O[C@@H]4O[C@H](CO)[C@@H](O)[C@H](O)[C@H]4O[C@@H]4O[C@H](CO)[C@@H](O)[C@H](O)[C@H]4O[C@@H]4OC[C@@H](O)[C@H](O)[C@H]4O)C(C)(C)[C@@H]3CC[C@]12C [Notoginsenoside Fa] | 7% | 33% |  | 
21 | CC(C)=CCC[C@](C)(O[C@@H]1O[C@H](CO[C@@H]2OC[C@@H](O)[C@H](O)[C@H]2O)[C@@H](O)[C@H](O)[C@H]1O)[C@H]1CC[C@]2(C)[C@@H]1[C@H](O)C[C@@H]1[C@@]3(C)CC[C@H](O[C@@H]4O[C@H](CO)[C@@H](O)[C@H](O)[C@H]4O[C@@H]4O[C@H](CO)[C@@H](O)[C@H](O)[C@H]4O[C@@H]4OC[C@@H](O)[C@H](O)[C@H]4O)C(C)(C)[C@@H]3CC[C@]12C [Notoginsenoside Fc] | 0% | 0% |  | 
22 | CC(C)=CCC[C@@](C)(O)[C@H]1CC[C@]2(C)[C@@H]1[C@H](O)C[C@@H]1[C@@]3(C)CC[C@H](O[C@@H]4O[C@H](CO)[C@@H](O)[C@H](O)[C@H]4O[C@@H]4O[C@H](CO)[C@@H](O)[C@H](O)[C@H]4O[C@@H]4OC[C@@H](O)[C@H](O)[C@H]4O)C(C)(C)[C@@H]3CC[C@]12C [Notoginsenoside Ft1] | 14% | 3% |  | 
23 | CC(C)=CCC[C@](C)(O[C@@H]1O[C@H](CO)[C@@H](O)[C@H](O)[C@H]1O)[C@H]1CC[C@]2(C)[C@@H]1[C@H](O)C[C@@H]1[C@@]3(C)CC[C@H](O)C(C)(C)[C@@H]3[C@@H](O[C@@H]3O[C@H](CO)[C@@H](O)[C@H](O)[C@H]3O[C@@H]3OC[C@@H](O)[C@H](O)[C@H]3O)C[C@]12C [Notoginsenoside R1] | 5% | 26% |  | 
24 | CC(C)=CCC[C@](C)(O)[C@H]1CC[C@]2(C)[C@@H]1[C@H](O)C[C@@H]1[C@@]3(C)CC[C@H](O)C(C)(C)[C@@H]3[C@@H](O[C@@H]3O[C@H](CO)[C@@H](O)[C@H](O)[C@H]3O[C@@H]3OC[C@@H](O)[C@H](O)[C@H]3O)C[C@]12C [Notoginsenoside R2] | 19% | 9% |  | 
25 | CO[C@@H]1[C@@H](OC(N)=O)[C@@H](O)[C@H](Oc2ccc3c([O-])c(NC(=O)c4ccc(O)c(CC=C(C)C)c4)c(=O)oc3c2C)OC1(C)C.[Na+] [Novobiocin (Sodium)] | 25% | 1% |  | 
26 | CO[C@@H]1[C@@H](OC(N)=O)[C@@H](O)[C@H](Oc2ccc3c([O-])c(NC(=O)c4ccc(O)c(CC=C(C)C)c4)c(=O)oc3c2C)OC1(C)C.[Na+] [Novobiocin (sodium)] | 6% | 6% |  | 
27 | Cn1cc(C(N)=O)ccc1=O [Nudifloramide] | 0% | 0% |  | 
28 | CC(=O)NCCc1c[nH]c2ccc(O)cc12 [N‐Acetyl‐5‐hydroxytryptamine] | 0% | 0% |  | 
